Several values for one entry are separate records, joined by “and”; a condition that tells them apart may be missing. Equal values may be shown once. Read-outs that look alike come from different tables or passages of the source. Ends that are not written are not given here.
Key:
Vero cells = conditions: for Absorbance values - cytotoxicity at 24 h / Percentages of cytotoxicity at 24 h / cytotoxicity (in words): Vero cells; for Absorbance values - cytotoxicity at 24 h: MTT 570 nm; for Absorbance values - cytotoxicity at 24 h / Percentages of cytotoxicity at 24 h: replicates
Method: (§1) Antiviral activity was determined at 24 h using an immunofluorescence-based assay. Cytotoxicity was determined using an MTT assay on uninfected cells treated with the same concentrations of peptide.
(§2) Virus and peptide were left on the cells for the entire duration of the experiment (24 h).
(§3) Either immediately after infection, or 2 h after infection, 50µl of treatment from the dilution plate were transferred to the cells in each plate (infectivity and cytotoxicity). […] 50 µl of media without diluent were added to the cytotoxicity plate instead of virus. Both plates were incubated at 37° C., 5% CO2 for 24 h.
(§4) The cytotoxicity plate was treated with MTT to determine cell viability.
(§5) Cytotoxicity was detected by MTT assay following standard protocols and techniques. Briefly, the MTT reagent (Sigma, M5655) was added to the cells for 2 h at 37° C., 5% CO2, after which the media was removed and the precipitate solubilized with a mixture of 1: 1 Isopropanol: DMSO for 20 minutes. The supernatant was transferred to a clean plate and signal read at 570 nm.

SARS-CoV2 [1] = tested on: SARS-CoV2
in vitro [2] = conditions: dog, MTT
MDCK-II cells = conditions: for Absorbance values - cytotoxicity at 24 h: MTT 570 nm; for Absorbance values - cytotoxicity at 24 h / Percentages of cytotoxicity at 24 h: replicates
in vitro [3] = conditions: African green monkey
Method: as §1, §2, §3, §4, §5

[4] = Preliminary safety in pilot studies using human subjects; format: in vivo
[5] = tested on: Influenza A virus (A / WSN /33); test: microbe, parasite or virus in culture; conditions: MDCK-II, 24 h
[6] = tested on: Influenza A virus (A / WSN /33)
SARS-CoV-2 = test: Clinical study of INS peptide (GAMMORA) in patients with moderate to severe COVID-19; format: in vivo, human; conditions: of 15 treated, 40 mg/day SC for 9 days plus standard of care (Atripla)
SARS-CoV2 [7] = test: microbe, parasite or virus in culture; conditions: Severe acute respiratory syndrome coronavirus 2, Vero, 24 h
[8] = uninfected Vero cells, MTT, 24 h

Compound: WTAVQMAVFIHNFKRK [Codivir]
- Absorbance values - cytotoxicity at 24 h (Vero cells; 0.05 uM): 0.1161 and 0.1456 and 0.1448 and 0.1447 and 0.1351
- Percentages of cytotoxicity at 24 h (Vero cells; 0.05 uM): 4.24% and -20.09% and -19.43% and -19.35% and -9.12% and -11.43%
- Absorbance values - cytotoxicity at 24 h (Vero cells; 0.15 uM): 0.1361 and 0.143 and 0.1487 and 0.1479 and 0.1455 and 0.1446
- Percentages of cytotoxicity at 24 h (Vero cells; 0.15 uM): -12.26% and -17.95% and -22.65% and -21.99% and -20.01% and -19.27%
- Absorbance values - cytotoxicity at 24 h (Vero cells; 0.46 uM): 0.1454 and 0.1447 and 0.1452 and 0.1433 and 0.1468 and 0.1493
- Percentages of cytotoxicity at 24 h (Vero cells; 0.46 uM): -19.93% and -19.35% and -19.76% and -18.20% and -21.08% and -23.15%
- Absorbance values - cytotoxicity at 24 h (Vero cells; 4.17 uM): 0.1306 and 0.1426 and 0.1477 and 0.1432 and 0.1433 and 0.1556
- Percentages of cytotoxicity at 24 h (Vero cells; 4.17 uM): -7.72% and -17.62% and -21.83% and -18.12% and -18.20% and -28.34%
- Absorbance values - cytotoxicity at 24 h (Vero cells; 12.50 uM): 0.1196 and 0.1315 and 0.1325 and 0.1324 and 0.1314 and 0.1395
- Percentages of cytotoxicity at 24 h (Vero cells; 12.50 uM): 1.35% and -8.46% and -9.29% and -9.21% and -8.38% and -15.06%
- Absorbance values - cytotoxicity at 24 h (Vero cells; 25.00 uM): 0.0691 and 0.075 and 0.0733 and 0.0763 and 0.0762 and 0.0822
- Percentages of cytotoxicity at 24 h (Vero cells; 25.00 uM): 43.00% and 38.14% and 39.54% and 37.07% and 37.15% and 32.20%
- Absorbance values - cytotoxicity at 24 h (Vero cells; 75.00 uM): 0.0407 and 0.0403 (2×) and 0.0389 and 0.0414 and 0.0421
- Percentages of cytotoxicity at 24 h (Vero cells; 75.00 uM): 66.433% and 66.76% (2×) and 67.91% and 65.85% and 65.27%
- cytotoxicity (in words) (Vero cells; at concentrations giving 90% inhibition of infectivity): minimal cytotoxicity
- cytotoxicity (in words) (Vero cells; highest concentrations tested): Some cytotoxicity
- TC90 (Vero cells; [8]): 143.6 µM
- TC99.9 (Vero cells; [8]): 185.9 µM
- EC50 (SARS-CoV2 [1]; 24 h): 12.5 µM
- CC50 at 24 h (in vitro [2]; TC50, text, MDCK-II cells): ~50 µM
- CC50 at 24 h (in vitro [2]; uninfected MDCK-II cells, TC50, post-infection row): 51 µM
- CC50 at 24 h (in vitro [2]; uninfected MDCK-II cells, TC50, with infection row): 49.2 µM
- Absorbance values - cytotoxicity at 24 h (MDCK-II cells; 0.05 µM): 0.0985 and 0.1183 and 0.1389 and 0.1493 and 0.1468 and 0.1612
- Absorbance values - cytotoxicity at 24 h (MDCK-II cells; 0.15 µM): 0.1552 and 0.1707 and 0.1789 and 0.1965 and 0.1896 and 0.2019
- Absorbance values - cytotoxicity at 24 h (MDCK-II cells; 0.46 µM): 0.1522 and 0.1679 and 0.2104 and 0.2062 and 0.1922 and 0.1978
- Absorbance values - cytotoxicity at 24 h (MDCK-II cells; 4.17 µM): 0.2071 and 0.1982 and 0.2203 and 0.2153 and 0.2027 and 0.2054
- Absorbance values - cytotoxicity at 24 h (MDCK-II cells; 12.50 µM): 0.183 and 0.2158 and 0.2057 and 0.2165 and 0.2045 and 0.2113
- Absorbance values - cytotoxicity at 24 h (MDCK-II cells; 25.00 µM): 0.1794 and 0.1713 and 0.1708 and 0.1681 and 0.1845 and 0.1841
- Absorbance values - cytotoxicity at 24 h (MDCK-II cells; 75.00 µM): 0.0422 and 0.0436 and 0.0425 and 0.0421 (2×) and 0.0419
- TC90 (MDCK-II cells; MTT, 24 h): around 100 µM
- cytotoxicity (in words) (MDCK-II cells; highest concentrations tested): Some cytotoxicity
- Percentages of cytotoxicity at 24 h (MDCK-II cells; post infection, 0.05 µM): 24.34% and 25.6% and 18.31%
- Percentages of cytotoxicity at 24 h (MDCK-II cells; post infection, 0.15 µM): 0.42% and 3.91% and -2.32%
- Percentages of cytotoxicity at 24 h (MDCK-II cells; post infection, 0.46 µM): -4.5% and 2.6% and -0.24%
- Percentages of cytotoxicity at 24 h (MDCK-II cells; post infection, 4.17 µM): -9.11% and -2.72% and -4.09%
- Percentages of cytotoxicity at 24 h (MDCK-II cells; post infection, 12.50 µM): -9.72% and -3.64% and -7.08%
- Percentages of cytotoxicity at 24 h (MDCK-II cells; post infection, 25.00 µM): 14.81% and 6.5% and 6.7%
- Percentages of cytotoxicity at 24 h (MDCK-II cells; post infection, 75.00 µM): 78.66% (2×) and 78.77%
- Percentages of cytotoxicity at 24 h (MDCK-II cells; with infection, 0.05 µM): 50.08% and 40.05% and 29.61%
- Percentages of cytotoxicity at 24 h (MDCK-II cells; with infection, 0.15 µM): 21.35% and 13.49% and 9.34%
- Percentages of cytotoxicity at 24 h (MDCK-II cells; with infection, 0.46 µM): 22.87% and 14.91% and -6.63%
- Percentages of cytotoxicity at 24 h (MDCK-II cells; with infection, 4.17 µM): -4.95% and -0.44% and -11.64%
- Percentages of cytotoxicity at 24 h (MDCK-II cells; with infection, 12.50 µM): 7.26% and -9.36% and -4.24%
- Percentages of cytotoxicity at 24 h (MDCK-II cells; with infection, 25.00 µM): 9.08% and 13.19% and 13.44%
- Percentages of cytotoxicity at 24 h (MDCK-II cells; with infection, 75.00 µM): 78.61% and 77.9% and 78.46%
- CC50 at 24 h (in vitro [3]): 43.5 µM
- adverse events / severe adverse events [4]: No adverse events or severe adverse events were detected
- tolerability, side effects [4]: tolerable, exhibits no reported side effects and no harm to immune system, with no adverse events
- vital signs, physical examinations [4]: no significant differences
- blood tests ([4]; relative to baseline): no significant changes relative to the baseline

Compound: O=C(Nc1ccc([N+](=O)[O-])cc1Cl)c1cc(Cl)ccc1O [Niclosamide, reference compound]
- EC50 [5]: 0.61 µM
- EC90 [5]: 3.06 µM
- SI50 (=TC50/EC50) [6]: 16.84
- SI90 (=TC90/EC90) [6]: 4.19
- Absorbance values - cytotoxicity at 24 h (MDCK-II cells; 0 µM): 0.1646 and 0.1811
- Percentages of cytotoxicity at 24 h (MDCK-II cells; 0 µM): 16.58% and 8.22%
- Absorbance values - cytotoxicity at 24 h (MDCK-II cells; 0.01 µM): 0.2048
- Percentages of cytotoxicity at 24 h (MDCK-II cells; 0.01 µM): -3.79%
- Absorbance values - cytotoxicity at 24 h (MDCK-II cells; 0.04 µM): 0.2247 and 0.2292
- Percentages of cytotoxicity at 24 h (MDCK-II cells; 0.04 µM): -13.87% and -16.15%
- Absorbance values - cytotoxicity at 24 h (MDCK-II cells; 0.12 µM): 0.213 and 0.2407
- Percentages of cytotoxicity at 24 h (MDCK-II cells; 0.12 µM): -7.94% and -21.98%
- Absorbance values - cytotoxicity at 24 h (MDCK-II cells; 0.37 µM): 0.2429 and 0.2319
- Percentages of cytotoxicity at 24 h (MDCK-II cells; 0.37 µM): -23.1% and -17.52%
- Absorbance values - cytotoxicity at 24 h (MDCK-II cells; 1.11 µM): 0.227 and 0.2465
- Percentages of cytotoxicity at 24 h (MDCK-II cells; 1.11 µM): -15.04% and -24.92%
- Absorbance values - cytotoxicity at 24 h (MDCK-II cells; 3.33 µM): 0.2005 and 0.1965
- Percentages of cytotoxicity at 24 h (MDCK-II cells; 3.33 µM): -1.61% and 0.42%
- Absorbance values - cytotoxicity at 24 h (MDCK-II cells; 10 µM): 0.107 and 0.1166
- Percentages of cytotoxicity at 24 h (MDCK-II cells; 10 µM): 45.77% and 40.91%

Compound: WTAVQMAVFIHNFKRK [INS-HC1]
- patients recovered completely and negative for SARS-CoV-2 at end of study (SARS-CoV-2): Four
- patients discharged from intensive care unit (ICU) to the general ward with almost full recovery (SARS-CoV-2; moderate to severe COVID-19, control group (Atripla only): 14 out of 15 died): 15 patients

Compound: CCC(CC)COC(=O)[C@H](C)N[P@](=O)(OC[C@H]1O[C@@](C#N)(c2ccc3c(N)ncnn23)[C@H](O)[C@@H]1O)Oc1ccccc1 [Remdesivir, reference compound]
- Absorbance values - cytotoxicity at 24 h (Vero cells; 0.01 uM): 0.1378 and 0.1381
- Absorbance values - cytotoxicity at 24 h (Vero cells; 0.03 uM): 0.147 and 0.1423
- Absorbance values - cytotoxicity at 24 h (Vero cells; 0.08 uM): 0.1483 and 0.1462
- Absorbance values - cytotoxicity at 24 h (Vero cells; 0.25 uM): 0.1554 and 0.1531
- Absorbance values - cytotoxicity at 24 h (Vero cells; 0.74 uM): 0.1606 and 0.1568
- Absorbance values - cytotoxicity at 24 h (Vero cells; 2.22 uM): 0.1599 and 0.1541
- Absorbance values - cytotoxicity at 24 h (Vero cells; 6.67 uM): 0.1198 and 0.1127
- Absorbance values - cytotoxicity at 24 h (Vero cells; 20 uM): 0.1234 and 0.1247
- EC99.9 (SARS-CoV2 [1]): 4.4 µM
- EC50 (SARS-CoV2 [7]): 1.28 µM
- EC90 (SARS-CoV2 [7]): 3.9 µM

Reference: US20230190863A1, “PHARMACEUTICAL COMPOSITIONS AND ANTI-VIRAL USES THEREOF” (priority 2020, published 2023)
